{"source": "paper PMC9071130", "about": "“Functional analysis of LFRFamide signaling in Pacific abalone, Haliotis discus hannai” (PLoS ONE, 2022)", "key": {"Hdh-sNPFR [1]": {"tested_on": "Hdh-sNPFR", "experiment": "SRE-Luc reporter activation in Hdh-sNPFR-transfected HEK293 cells", "format": "cell-based, Haliotis discus hannai", "settings": "peptide 10^−6 M, 6 h, n = 3", "experimental": "(§1) HEK293 cells were grown in monolayer culture in Dulbecco’s modified Eagle medium (Gibco, Loughborough, UK) with 10% fetal bovine serum (HyClone, GE Healthcare, Chicago, IL, USA) and 1% penicillin/streptomycin (Invitrogen, Carlsbad, CA, USA) at 37°C, 5% CO2. HEK293 cells were seeded in 24-well plates and the transfection was performed using a formulated polyethylenimine solution (Sigma-Aldrich, St. Louis, MO, USA) as previously described. […] The cells were harvested with a cell lysis buffer (Promega, Madison, WI, USA) and luciferase activities were assayed using a microplate luminometer (Berthold, Bad Wildbad, Germany) and normalized by β-galactosidase values detected on a microplate reader (Tecan, Männedorf, Switzerland) at 405 nm.\n(§2) Fig 5 Effect of LFRFa peptides on luciferase reporter activities in Hdh-sNPFR-expressing HEK293 cells. […] Intracellular cAMP accumulation was measured by CRE-Luc reporter activities in Hdh-sNPFR- or maternal plasmid pcDNA3-transfected HEK293 cells. The relative activities were determined in response to 10^−5 M of FKN and 10^−6 M of peptide as indicated. […]"}, "Pacific abalone": {"tested_on": "Pacific abalone", "settings": "injection of NPF peptide; earlier paper of the authors; cited from earlier work", "description": "Along with insect sNPFs, LFRFa peptides convert feeding motor programs from ingestive to egestive, depress feeding muscle contractions in Aplysia californica, and increase rectal contractions in Sepia officinalis."}, "Hdh-sNPFR [2]": {"tested_on": "Hdh-sNPFR", "experiment": "CRE-Luc reporter activation in Hdh-sNPFR-transfected HEK293 cells", "format": "cell-based, Haliotis discus hannai", "settings": "peptide 10^−6 M, 6 h, no forskolin, n = 3", "experimental": "as §1, §2"}, "Hdh-sNPFR [3]": {"tested_on": "Hdh-sNPFR", "experiment": "Internalization of HA-tagged Hdh-sNPFR in HEK293 cells (immunocytochemistry, confocal microscopy)", "format": "cell-based, Haliotis discus hannai", "settings": "HEK293 cells with HA-tagged Hdh-sNPFR; peptide 10^−6 M; 5 and 30 min", "experimental": "To detect Hdh-sNPFR expression, HEK293 cells were seeded on poly-D-lysine hydrobromide (Sigma-Aldrich)-coated coverslips in 24-well plates. The Hdh-sNPFR expression plasmid was transfected into HEK293 cells as described above. At approximately 30 h post-transfection, the cells were treated with LFRFa peptides and NPF for 5 min and 30 min, respectively. The cells were fixed with 4% paraformaldehyde for 10 min, followed by treatment with 1% bovine serum albumin in phosphate-buffered saline with 0.1% Tween 20 (PBST) for 30 min at room temperature to block non-specific binding. The HEK293 cells were treated with a monoclonal HA primary antibody (1:5000 dilution; H9658, Sigma-Aldrich) in PBST at 4°C for 16 h. After washing with PBST three times for 10 min each, the cells were treated with a secondary antibody [anti-mouse IgG (H+L), F(ab’)2Fragment (AlexaFluor 488 Conjugate), 1:2000 dilution; Cell Signaling, Danvers, MA, USA] in PBST at room temperature for 1 h in a light-blocked chamber. After washing with PBST three times for 10 min each, the cells were mounted with a mounting medium including DAPI (Abcam, Cambridge, UK). The expression of Hdh-sNPFR was monitored with a confocal laser-scanning microscope (FV3000, Olympus, Tokyo, Japan).\nFig 7 Subcellular localization and internalization of Hdh-sNPFR. […]"}}}
{"substance": "QDAMLAPPDRPSEFRSPDQLRQYLKALNEYYAIVGRPRF-NH2 [NPF, Pacific abalone neuropeptide F, 39 amino acids, amidated, used as comparison peptide]", "values": [{"measurement": "Activation of SRE-Luc reporter", "setting": "Hdh-sNPFR [1]", "value": "did not activate"}, {"measurement": "Food consumption in Pacific abalone after NPF injection", "setting": "Pacific abalone", "value": "increased food consumption"}, {"measurement": "Activation of CRE-Luc reporter", "setting": "Hdh-sNPFR [2]", "value": "did not activate"}, {"measurement": "Internalization of Hdh-sNPFR from cell membrane to cytoplasm", "setting": "Hdh-sNPFR [3]", "value": "did not undergo redistribution from the cell surface to the cytoplasm"}]}
